Legend:
Test in all cases: Bliss excess, mean over the matrix (fraction); higher = more synergy
[1] = test system: A3-KAW (B-Cell Non-Hodgkin's Lymphoma)
Procedure, shortened: (§1)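 Cell lines grown in DMEM/F12 or RPMI with 10% FBS were plated in 1536-well plates and held 24 hours at 37°C, 5% CO2 before 72 hours of exposure to two-drug dose matrices, with DMSO typically at 0.2%. CellTiter-Glo 2.0 luminescence gave viability, which was converted to inhibition. Vehicle wells were set to 0 and blank wells to 1. Combination Emax is the second-highest inhibition in the matrix, and Bliss excess is the observed combination effect minus the expected EA + EB − EA·EB, where EA and EB are the single-agent effects.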

A498 (Kidney Carcinoma) = test system: A498 (Kidney Carcinoma)
Procedure, shortened: as §1

ARH-77 (Non-Cancerous) = test system: ARH-77 (Non-Cancerous)
Procedure, shortened: as §1

[2] = test system: CAPAN-2 (Pancreatic Carcinoma)
Procedure, shortened: as §1

[3] = test system: COLO-824 (Breast Carcinoma)
Procedure, shortened: as §1

[4] = test system: COR-L311 (Small Cell Lung Carcinoma)
Procedure, shortened: as §1

GI-ME-N (Neuroblastoma) = test system: GI-ME-N (Neuroblastoma)
Procedure, shortened: as §1

[5] = test system: HCC1954 (Breast Carcinoma)
Procedure, shortened: as §1

IGR-37 (Melanoma) = test system: IGR-37 (Melanoma)
Procedure, shortened: as §1

[6] = test system: JSC-1 (B-Cell Non-Hodgkin's Lymphoma)
Procedure, shortened: as §1

LN-405 (Glioblastoma) = test system: LN-405 (Glioblastoma)
Procedure, shortened: as §1

[7] = test system: NCI-H1581 (Non-Small Cell Lung Carcinoma)
Procedure, shortened: as §1

[8] = test system: NCI-H1650 (Lung Adenocarcinoma)
Procedure, shortened: as §1

[9] = test system: NCI-H1666 (Lung Adenocarcinoma)
Procedure, shortened: as §1

[10] = test system: NCI-H64 (Small Cell Lung Carcinoma)
Procedure, shortened: as §1

NY (Osteosarcoma) = test system: NY (Osteosarcoma)
Procedure, shortened: as §1

[11] = test system: PANC-10-05 (Pancreatic Carcinoma)
Procedure, shortened: as §1

[12] = test system: SK-MES-1 (Squamous Cell Lung Carcinoma)
Procedure, shortened: as §1

[13] = test system: TT (Thyroid Gland Carcinoma)
Procedure, shortened: as §1

[14] = test system: VCaP (Prostate Carcinoma)
Procedure, shortened: as §1

Structure (SMILES) | Bliss excess [1] | Bliss excess (A498 (Kidney Carcinoma)) | Bliss excess (ARH-77 (Non-Cancerous)) | Bliss excess [2] | Bliss excess [3] | Bliss excess [4] | Bliss excess (GI-ME-N (Neuroblastoma)) | Bliss excess [5] | Bliss excess (IGR-37 (Melanoma)) | Bliss excess [6] | Bliss excess (LN-405 (Glioblastoma)) | Bliss excess [7] | Bliss excess [8] | Bliss excess [9] | Bliss excess [10] | Bliss excess (NY (Osteosarcoma)) | Bliss excess [11] | Bliss excess [12] | Bliss excess [13] | Bliss excess [14]
CC1(C)CCC(CN2CCN(c3ccc(C(=O)NS(=O)(=O)c4ccc(NCC5CCOCC5)c([N+](=O)[O-])c4)c(Oc4cnc5[nH]ccc5c4)c3)CC2)=C(c2ccc(Cl)cc2)C1 [Venetoclax] + C[C@@H]1COCCN1C2=NC(=NC(=C2)C3(CC3)[S@](=N)(=O)C)C4=C5C=CNC5=NC=C4 [AZD6738] (first compound max 1 µM, 7x7, partner max 10 µM) | 0.008 | -0.0459 | 0.0642 | -0.0439 | -0.0203 | -0.0291 | -0.0353 | 0.0328 | 0.0453 | -0.0148 | -0.016 | 0.007 | -0.0605 | -0.0405 | -0.0054 | -0.0597 | -0.113 | -0.0215 | -0.0387 | -0.0174
C[C@@H](c1ccc2nccn2c1)n1nnc2ncc(-c3cnn(C)c3)nc21 [Savolitinib] + Cc1c2c(nn1C)CSCc1cc(n(C)n1)CSc1cc(c3ccccc3c1)OCCCc1c(C(=O)O)n(C)c3c-2c(Cl)ccc13 [AZD5991] (first compound max 1 µM, 7x7, partner max 1 µM) | -0.0499 | -0.032 | -0.0181 | -0.0206 | -0.0212 | -0.0246 | -0.0778 | -0.0525 | 0.0454 | -0.0434 | 0.0023 | -0.0209 | -0.0634 | -0.0577 | -0.021 | -0.0288 | -0.0994 | -0.0361 | -0.0102 | -0.0422
CCN(CCO)CCCOc1ccc2c(Nc3cc(CC(=O)Nc4cccc(F)c4)[nH]n3)ncnc2c1 [AZD2811] + O=C(c1cc(Cc2n[nH]c(=O)c3ccccc23)ccc1F)N1CCN(C(=O)C2CC2)CC1 [Olaparib] (first compound max 1 µM, 7x7, partner max 10 µM) | 0.0053 | -0.0656 | 0.0114 | -0.0222 | -0.0071 | -0.0088 | -0.0233 | -0.0023 | -0.0353 | 0.0145 | -0.0224 | -0.0058 | -0.025 | -0.0746 | 0.0589 | -0.0339 | -0.0468 | -0.0127 | -0.0596 | 0.0014
COc1cccc(OCCCN)c1-c1cc(Nc2cnc(C#N)cn2)n[nH]1 [Prexasertib] + CCc1c2c(nc3ccc(O)cc13)-c1cc3c(c(=O)n1C2)COC(=O)[C@]3(O)CC [SN-38] (first compound max 1 µM, 7x7, partner max 0.3 µM) | 0.0247 | -0.105 | -0.0304 | -0.0205 | 0.101 | -0.0058 | -0.0326 | 0.123 | -0.0727 | -0.0739 | 0.0786 | 0.196 | -0.0339 | -0.0269 | 0.0021 | -0.0647 | -0.0372 | -0.0507 | -0.0758 | -0.0541
CN(C)CCCOc1ccc(-c2ccc3ncc4c(c3c2)n(C2CCOCC2)c(=O)n4C)cn1 [AZD0156] + C[C@@H]1COCCN1C2=NC(=NC(=C2)C3(CC3)[S@](=N)(=O)C)C4=C5C=CNC5=NC=C4 [AZD6738] (first compound max 1 µM, 7x7, partner max 10 µM) | 0.0876 | -0.0347 | 0.0673 | -0.0591 | 0.0425 | 0.0265 | -0.015 | 0.0016 | -0.0153 | 0.0233 | -0.0236 | 0.0005 | -0.0294 | -0.0274 | -0.0368 | -0.0372 | -0.0415 | -0.0406 | -0.0583 | -0.037
COc1cccc(OCCCN)c1-c1cc(Nc2cnc(C#N)cn2)n[nH]1 [Prexasertib] + C[C@@H]1COCCN1C2=NC(=NC(=C2)C3(CC3)[S@](=N)(=O)C)C4=C5C=CNC5=NC=C4 [AZD6738] (first compound max 1 µM, 7x7, partner max 10 µM) | 0.0104 | -0.0514 | 0.0006 | -0.003 | -0.0675 | -0.0363 | 0.0681 | 0.0079 | -0.0621 | -0.0089 | -0.136 | 0.0436 | 0.0094 | 0.0338 | -0.0184 | -0.0031 | 0.0258 | -0.0205 | 0.0244 | -0.0267
CC1(C)CCC(CN2CCN(c3ccc(C(=O)NS(=O)(=O)c4ccc(NCC5CCOCC5)c([N+](=O)[O-])c4)c(Oc4cnc5[nH]ccc5c4)c3)CC2)=C(c2ccc(Cl)cc2)C1 [Venetoclax] + Cn1cnc2c(F)c(Nc3ccc(Br)cc3Cl)c(C(=O)NOCCO)cc21 [Selumetinib] (first compound max 1 µM, 7x7, partner max 3 µM) | 0.0127 | 0.024 | 0.0304 | -0.0256 | 0.0356 | -0.0367 | -0.0744 | 0.0025 | -0.0499 | -0.0184 | -0.0598 | -0.0158 | -0.0457 | 0.025 | -0.0243 | -0.0331 | -0.0386 | -0.0572 | -0.0799 | -0.0082
Cc1c2c(nn1C)CSCc1cc(n(C)n1)CSc1cc(c3ccccc3c1)OCCCc1c(C(=O)O)n(C)c3c-2c(Cl)ccc13 [AZD5991] + C[C@@H](Nc1cc(F)cc(F)c1)c1cc(C(=O)N(C)C)cc2c(=O)cc(N3CCOCC3)oc12 [AZD8186] (first compound max 1 µM, 7x7, partner max 3 µM) | -0.0084 | -0.0252 | -0.0404 | 0.023 | 0.0043 | -0.0098 | -0.0631 | 0.031 | 0.038 | -0.0289 | 0.028 | -0.0068 | 0.0221 | -0.0359 | -0.0067 | 0.08 | -0.0473 | 0.052 | -0.0219 | -0.0086
CN(C)CCCOc1ccc(-c2ccc3ncc4c(c3c2)n(C2CCOCC2)c(=O)n4C)cn1 [AZD0156] + C=CCn1c(=O)c2cnc(Nc3ccc(N4CCN(C)CC4)cc3)nc2n1-c1cccc(C(C)(C)O)n1 [AZD1775] (first compound max 1 µM, partner max 1 µM) | 0.0707 | -0.0532 | -0.0207 | -0.0709 | -0.0024 | -0.115 | -0.0452 | -0.034 | -0.0159 | -0.0102 | -0.0478 | -0.0641 | -0.0451 | -0.0371 | -0.0931 | -0.0212 | -0.0519 | -0.0176 | -0.0951 | -0.0751
CN(CCO)CC[C@H](CSc1ccccc1)Nc1ccc(S(=O)(=O)NC(=O)c2ccc(N3CCC([C@@H](O)c4ccccc4-c4ccc(Cl)cc4)CC3)cc2)cc1S(=O)(=O)C(F)(F)F [AZD4320] + Cn1cnc2c(F)c(Nc3ccc(Br)cc3Cl)c(C(=O)NOCCO)cc21 [Selumetinib] (first compound max 1 µM, 7x7, partner max 3 µM) | 0.0747 | 0.0329 | -0.0039 | 0.0819 | -0.0523 | -0.0034 | 0.0196 | 0.0665 | -0.0039 | 0.0044 | -0.061 | 0.0408 | 0.0245 | 0.0676 | 0.0427 | 0.0072 | 0.0065 | 0.0282 | -0.033 | 0.0322
CC(=O)c1c(C)c2cnc(Nc3ccc(N4CCNCC4)cn3)nc2n(C2CCCC2)c1=O [Palbociclib] + CC1(C)CCC(CN2CCN(c3ccc(C(=O)NS(=O)(=O)c4ccc(NCC5CCOCC5)c([N+](=O)[O-])c4)c(Oc4cnc5[nH]ccc5c4)c3)CC2)=C(c2ccc(Cl)cc2)C1 [Venetoclax] (first compound max 10 µM, 7x7, partner max 1 µM) | -0.0332 | -0.021 | 0.0762 | -0.0473 | 0.0365 | -0.0186 | -0.0514 | -0.0424 | -0.0528 | -0.0127 | -0.0391 | -0.029 | -0.051 | -0.069 | -0.0185 | -0.0479 | -0.107 | -0.0114 | 0.0138 | -0.0076
CC1(C)CCC(CN2CCN(c3ccc(C(=O)NS(=O)(=O)c4ccc(NCC5CCOCC5)c([N+](=O)[O-])c4)c(Oc4cnc5[nH]ccc5c4)c3)CC2)=C(c2ccc(Cl)cc2)C1 [Venetoclax] + COc1cc(Nc2ncc3c(n2)-c2ccc(Cl)cc2C(c2c(F)cccc2OC)=NC3)ccc1C(=O)O [Alisertib] (first compound max 1 µM, 7x7, partner max 10 µM) | -0.156 | -0.0352 | 0.278 | -0.0463 | 0.206 | 0.0981 | -0.094 | 0.0356 | -0.0148 | 0.0504 | -0.0196 | 0.0694 | -0.0515 | -0.0713 | 0.194 | -0.0009 | -0.0602 | -0.0201 | -0.113 | 0.0574
CN(CCO)CC[C@H](CSc1ccccc1)Nc1ccc(S(=O)(=O)NC(=O)c2ccc(N3CCC([C@@H](O)c4ccccc4-c4ccc(Cl)cc4)CC3)cc2)cc1S(=O)(=O)C(F)(F)F [AZD4320] + C1CN(CCC1(C(=O)N[C@@H](CCO)C2=CC=C(C=C2)Cl)N)C3=NC=NC4=C3C=CN4 [Capivasertib] (first compound max 1 µM, 7x7, partner max 3 µM) | -0.0211 | -0.0049 | 0.0277 | -0.0534 | -0.0103 | 0.0397 | -0.0729 | 0.0377 | -0.0389 | -0.0187 | -0.0454 | -0.0143 | -0.0427 | -0.0491 | -0.028 | -0.0277 | -0.0338 | -0.0608 | -0.0456 | 0.0013
Cc1c2c(nn1C)CSCc1cc(n(C)n1)CSc1cc(c3ccccc3c1)OCCCc1c(C(=O)O)n(C)c3c-2c(Cl)ccc13 [AZD5991] + C=CCn1c(=O)c2cnc(Nc3ccc(N4CCN(C)CC4)cc3)nc2n1-c1cccc(C(C)(C)O)n1 [AZD1775] (first compound max 1 µM, partner max 1 µM) | 0.0126 | 0.0231 | -0.0418 | 0.0292 | -0.0593 | -0.0655 | 0.0646 | 0.0435 | -0.0015 | -0.0042 | 0.0077 | -0.0365 | 0.0047 | 0.0037 | -0.0187 | -0.0177 | -0.0551 | -0.0183 | 0.007 | -0.011
